≈ marks a conversion by molar mass, not a printed value. Read-outs that look alike come from different tables or passages of the source.
Columns and labels:
[1] = system: Aspergillus fumigatus NCPF2010; experiment: Broth microdilution assay (modified EUCAST); assay type: cell-based; conditions: broth microdilution assay, n = 3, read-out: MIC75 against Aspergillus fumigatus isolate NCPF2010
Summary of the method: (§1)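 Spores from 3-day Sabouraud cultures (working suspension 2 × 10^5 spores/mL) were added to an equal volume of RPMI-1640 (2 mM L-glutamine, 0.5% BSA, 2% glucose, 0.165 M MOPS, pH 7) containing compound, in quadruplicate. After 48 hr at 35 °C, OD530 gave percent inhibition. MIC50, MIC75 and MIC90 came from concentration-response curves.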

[2] = system: Aspergillus fumigatus L98H (TR34/L98H); experiment: Broth microdilution assay (modified EUCAST); assay type: cell-based; conditions: broth microdilution assay, n = 3
Summary of the method: as §1

[3] = system: Aspergillus fumigatus NCPF7099; experiment: Broth microdilution assay (modified EUCAST); assay type: cell-based; conditions: n = 3, read-out: MIC75 against Aspergillus fumigatus isolate NCPF7099
Summary of the method: as §1

[4] = system: Aspergillus fumigatus NCPF7100; experiment: Broth microdilution assay (modified EUCAST); assay type: cell-based; conditions: broth microdilution assay, n = 3
[5] = system: Aspergillus fumigatus (NCPF2010); experiment: Resazurin-microtitre assay of planktonic fungus growth; assay type: cell-based; conditions: Aspergillus fumigatus NCPF2010; resazurin-microtitre assay
Method: This assay was conducted using a modified, published method (Monteiro et al., 2012). Spores of aspergillus fumigatus (NCPF2010, Public Health England, Wiltshire) were cultured in Sabouraud dextrose agar for 3 days. A stock spore suspension was prepared from a Sabouraud dextrose agar culture by washing with PBS-tween (10 mL; PBS containing 0.05% Tween-20, 100 U/mL Penicillin and 100 U/mL Streptomycin). The spore count was assessed using a Neubauer haemocytometer and, using PBS adjusted to 10^6 spores/mL. A working suspension of spores (10^4 spores/mL) was prepared in filter sterilised MOPS RPMI-1640 (50 mL; RPMI-1640 containing 2 mM L-glutamine, 2% glucose and 0.165 M MOPS, buffered to pH 7 with NaOH). Resazurin sodium salt (100 µL of 1% solution; Sigma-Aldrich, Dorset, UK) was added to the spore suspension and mixed well. The spore suspension-resazurin mixture (100 µL/well) was added to 384-well plates (Catalogue number 353962, BD Falcon, Oxford, UK).
Simultaneously, test compounds (0.5 µL DMSO solution) were added to 100 µL of the spore-resazurin mixture in quadruplicate to provide a final DMSO solution of 0.5% using an Integra VIAFLO 96 (Intergra, Zizers, Switzerland). For non-spore control wells, MOPS-RPMI-resazurin solution (100 µL) was added instead of the spore-resazurin mixture. The plate was covered with a Breathe Easier membrane (Catalogue No Z763624, Sigma-Aldrich, Dorset, UK), and incubated (35° C., 5% CO2) until fluorescence in the inoculated wells was double that of the control wells (around 24 hr). The fluorescence of each well (545 nm (excitation) / 590 nm (emission), gain 800, focal height 5.5 mm) was determined using a multi-scanner (Clariostar: BMG, Buckinghamshire, UK). The percentage inhibition for each well was calculated and the MIC50, MIC75 and MIC90 values were calculated from the concentration-response curve generated for each test compound.

[6] = system: aspergillus fumigatus (ATCC 13073 [strain: NIH 5233]); experiment: Survival of severely immunosuppressed neutropenic infected mice, monotherapy and combination; assay type: in vivo, A/J mice; conditions: Example 1 0.4 mg/mL (in); Posaconazole 1 mg/kg (po); once daily days 1-6
Method: On day 0, animals were infected intranasally with 35 µL of the spore suspension (1.67 × 10^8 spores/mL in physiological saline) of aspergillus fumigatus (ATCC 13073 [strain: NIH 5233]). Compound Example (I), prepared as a suspension in isotonic saline (0.4 mg/mL), was dosed once daily by an intra-nasal injection (35 µL/mouse) on days 1-6 after infection. Posaconazole (1 mg/kg) was given orally once daily on days 1-6 after infection. Body weight and survival were monitored daily up to day 7.

[7] = system: aspergillus fumigatus (ATCC 13073 [strain: NIH 5233]); experiment: In vivo anti-fungal activity, prophylactic and therapeutic treatment of infected immunocompromised neutropenic mice; parameters: species or system A/J mice; conditions: prophylactic treatment (days 0, 1, 2 and 3); 0.4 mg/mL
[8] = system: Chaectomium globosum ATCC44699; experiment: Fungus panel screening, CLSI broth microdilution; assay type: cell-based
Method: Fungus panel screening was conducted by Eurofins Panlabs Inc. The MIC and MIC50 values of the test articles were determined following the guidelines of the Clinical and Laboratory Standards Institute, broth microdilution methods for yeast (CLSI M27-A2), (CLSI, 2002) and for filamentous fungi (CLSI M38-A), (CLSI, 2008).

Row | Structure (SMILES) | MIC [1] | MIC75 against Aspergillus fumigatus isolate L98H [2] | MIC [3] | MIC75 against Aspergillus fumigatus isolate NCPF7100 [4] | MIC50 Planktonic fungal growth [5] | MIC75 Planktonic fungal growth [5] | Median survival [6] | No. of survivors on day 7 [6] | Survivors on day 7 (%) [6] | MIC ([1]; Aspergillus fumigatus, NCPF2010) | % Inhibition versus Infected Controls, GM in BALF [7] | % Inhibition versus Infected Controls, GM in serum [7] | % Inhibition versus Infected Controls, Lung Fungal Load [7] | MIC50 ([8]; 50% inhibition by visual inspection (CLSI)) | MIC ([8]; 100% inhibition by visual inspection (CLSI), read-out: MIC100)
1 | C[C@@H]1[C@H](O)[C@@H](C)/C=C/C=C/C=C/C=C/C=C/C=C/C=C/[C@H](O[C@@H]2O[C@H](C)[C@@H](O)[C@H](N)[C@@H]2O)C[C@@H]2O[C@](O)(C[C@@H](O)C[C@@H](O)[C@H](O)CC[C@@H](O)C[C@@H](O)CC(=O)O[C@H]1C)C[C@H](O)[C@H]2C(=O)O [Amphotericin B, reference compound] | 0.382 µM (≈ 0.353 µg/mL) | 0.209 µM (≈ 0.193 µg/mL) | 0.365 µM (≈ 0.337 µg/mL) | >1.08 µM | 0.0285 µM (≈ 0.0263 µg/mL) | 0.0644 µM (≈ 0.0595 µg/mL) | – | – | – | – | – | – | – | – | –
2 | CC[C@@H]([C@H](C)O)n1ncn(-c2ccc(N3CCN(c4ccc(OC[C@@H]5CO[C@@](Cn6cncn6)(c6ccc(F)cc6F)C5)cc4)CC3)cc2)c1=O [Posaconazole, reference compound] | – | – | – | – | – | – | 6.5 days | 0/6 | 0% | 0.0153 µM (≈ 0.0107 µg/mL) | 20% | 34% | 44% | 0.13 µg/mL (≈ 0.186 µM) | 0.25 µg/mL (≈ 0.357 µM)
